What was measured:
[1] = test system: BALB/c mice; experiment: Antibody detection by dot blot in serum of immunized mice; type: in vivo, mouse; settings: serum of day 35, serially diluted recombinant protein, FIG. 10
Method: (§1) Female BALB/C mice were purchased from Nara Biotech, Seoul, Korea, were 6 weeks old, and were bred under pathogen-free conditions. This study was conducted in accordance with the strict guidelines for the care and use of laboratory animals of the National Institutes of Health. The protocol was approved by the Animal Care Committee of Hanyang University Animal Hospital. For immunization, nanoparticles were emulsified with aluminum hydroxide (20 mg/100 μL, Sigma-Aldrich, St Louis, MO, USA). The mice were injected with 150 μg carrier dissolved in 150 μL phosphate buffered saline (PBS). The mice were injected with 50 μg hapten dissolved in 150 μL PBS. The mice were injected with 3:1 (w/w) nanoparticles (150 μg carrier and 50 μg hapten) combined with 150 μL PBS and 40 mg aluminum hydroxide. […] Serum was collected from centrifuged blood and frozen at −20° C. until being analyzed by ELSIA. […] Serum was collected from centrifuged blood and frozen at −20° C. until being analyzed by dot blot. […]
For determination of nanoparticle (or hapten peptide)-specific antibodies, serial dilutions of the recombinant protein were seeded on PVDF membranes at a concentration of 1.2 μg/μL to 12 ng/μL. […] Afterwards, the enhanced chemiluminescence solution (ECL) was treated with a membrane and directly analyzed with chemiscope 3400 (CLINX, China). […]

[2] = test system: BALB/c mice; experiment: ELISA of hapten peptide-specific IgG/IgM in blood of immunized mice; type: in vivo, mouse; settings: FIG. 6
Method: Female BALB/C mice were purchased from Nara Biotech, Seoul, Korea, were 6 weeks old, and were bred under pathogen-free conditions. This study was conducted in accordance with the strict guidelines for the care and use of laboratory animals of the National Institutes of Health. The protocol was approved by the Animal Care Committee of Hanyang University Animal Hospital. For immunization, nanoparticles were emulsified with aluminum hydroxide (20 mg/100 μL, Sigma-Aldrich, St Louis, MO, USA). The mice were injected with 150 μg carrier dissolved in 150 μL phosphate buffered saline (PBS). The mice were injected with 50 μg hapten dissolved in 150 μL PBS. The mice were injected with 3:1 (w/w) nanoparticles (150 μg carrier and 50 μg hapten) combined with 150 μL PBS and 40 mg aluminum hydroxide. The mice were injected with 1:3 (w/w) nanoparticles (16.67 μg carrier and 50 μg hapten) combined with 150 μL PBS and 40 mg aluminum hydroxide. All groups were injected by intraperitoneal route and again on day 21. Blood was collected through the jugular vein twice a week and centrifuged at 2,000 g for 20 minutes. Serum was collected from centrifuged blood and frozen at −20° C. until being analyzed by ELSIA. The mice were sacrificed on day 35. Whole blood was collected and centrifuged at 2,000 g for 20 minutes. Serum was collected from centrifuged blood and frozen at −20° C. until being analyzed by dot blot. […]

[3] = Nanoparticle size measurement with Zetasizer Nano ZS; type: physicochemical; settings: diluted in ultrapure water, room temperature, triplicate mean +/- standard deviation
Method: Recombinant amphiphilic peptides and hapten peptides were produced and provided by Anygen in Gwangju, Korea. In order to prepare nanoparticles (particulate soluble hapten) using amphiphilic peptides, amphiphilic peptides (peptides of SEQ ID NOs: 1 to 4, respectively) were dissolved in distilled water at a concentration of 4 mg/mL. Then, hapten peptides (peptides of SEQ ID NOs: 5 to 11, respectively) were dissolved in distilled water at a concentration of 0.5 mg/mL. Afterwards, a fixed amount of hapten (50 μg) was mixed with two different amounts of amphiphilic peptide at a ratio of 3:1 and 1:3 (w/w) and incubated for 30 minutes at room temperature (25° C.).
In order to characterize the sizes of amphiphilic peptides and nanoparticles, the diameters of micelles and nanoparticles formed by amphiphilic peptides (carriers) were measured with a Zetasizer Nano ZS system (Malvern Instruments, Malvern, UK). After digestion, the micelle stock solution was added to the cuvette. After 30-minute incubation, nanoparticles were diluted to a final volume of 1 mL. The average size was then analyzed with Dispersion Technology software 4.3. Nanoparticles were diluted using ultrapure water (refractive index 1.33, viscosity 0.89) and used for analysis at room temperature. Observations were presented as triplicate means +/−standard deviation.

[4] = test system: CD19 positive B cells reacting with DDOST protein labeled with Alexa 647; experiment: Live cell flow cytometry of hapten-specific B cells in splenocytes of immunized mice; type: in vivo, mouse; settings: FIG. 11
Method: as §1, with “hydroxide. The mice were injected with 1:3 (w/w) nanoparticles (16.67 μg carrier and 50 μg hapten) combined with 150 μL PBS and 40 mg aluminum hydroxide.” for “hydroxide.”
(§2) In order to identify nanoparticle (or hapten peptide)-specific lymphocyte populations, live cell flow cytometry was performed. […] After rinsing, the cells were filtered through a 40 μm cell strainer and counted. […]

[5] = test system: hapten and CD8 specific T cells; experiment: Live cell flow cytometry of hapten-specific cytotoxic T cells in splenocytes of immunized mice; type: in vivo, mouse
Method: as §1, with “hydroxide. The mice were injected with 1:3 (w/w) nanoparticles (16.67 μg carrier and 50 μg hapten) combined with 150 μL PBS and 40 mg aluminum hydroxide.” for “hydroxide.”
as §2

[6] = test system: mice; experiment: Comparison of antibodies induced by nanoparticles and by the KLH conjugate method (FIG. 7); type: in vivo, mouse; settings: compared with keyhole limpet hemocyanin method
Method: In addition, when the antibodies identified by Western blot were pre-reacted with the incomplete water-soluble antigen (lower panel of FIG. 7), all bands disappeared, confirming that all antibodies that were produced were specifically generated against the incomplete water-soluble antigen. After completion of the experiment, the spleens of the used animals were removed, splenocytes were isolated, and the analysis of B cells and T cells was performed through flow cytometry.

Substance	hapten peptide-specific IgG dots (dot blot) [1]	expression of hapten peptide-specific IgG and IgM antibodies in mouse blood [2]	Z-ave [3]	change in ratio of B cells responding to the target protein [4]	hapten-specific B cells, lower gating group ([4]; splenocytes day 35, Alexa 647 positive channel)	change in proportion of CD8 T cells reacting to the target protein ([5]; FIG. 12)	hapten and CD8 specific T cells, lower gating group ([5]; splenocytes day 35, FIG. 12)	antibody production (FIG. 7, top panel) [6]
RRRVVVVVV (micelle self-assembly) [Carrier, amphiphilic peptide of three arginines and six valines forming micelles by self-assembly]	no concentrated dots	no significant increase	193.8 ± 97.3 nm·days	no significant change	15.1%	did not show significant changes	0.78%	–
keyhole limpet hemocyanin	–	–	–	–	–	–	–	antibodies were produced

From patent US20260069671A1, “MICELLE COMPRISING AMPHIPHILIC PEPTIDE, AND ANTIGEN CARRIER NANOPARTICLE USING SAME” (RTAB CO., LTD., priority 2022, published 2026)
